Measurements reported in patent US20240182503A1, “MACROCYCLE COMPLEMENT FACTOR B INHIBITORS” (priority 2021, published 2024).
Read-outs that look alike come from different tables or passages of the source.

Conditions: rcm bond, DCM

COC(=O)c1ccc2c(c1)OCCC=CCO[C@H]1CCN(C(=O)OC(C)(C)C)[C@H]2C1
ring closure, isolated yield (from C=CCCOc1cc(C(=O)OC)ccc1[C@@H]1C[C@@H](OCC=C)CCN1C(=O)OC(C)(C)C, 12-membered ring, Grubbs I (20 mol%), 2.22 mM, 25.0 °C, 18.0 h): 61.9%

COC(=O)c1ccc2c3cc(ccc13)OCCC=CCO[C@H]1CCN(C(=O)OC(C)(C)C)[C@H]2C1
ring closure, isolated yield (from C=CCCOc1ccc2c(C(=O)OC)ccc([C@@H]3C[C@@H](OCC=C)CCN3C(=O)OC(C)(C)C)c2c1, 14-membered ring, Grubbs I, 3.2 mM, 16.0 h): 33.4%

COC(=O)c1ccc2c(c1)OCCCC=CCO[C@H]1CCN(C(=O)OC(C)(C)C)[C@H]2C1
ring closure, isolated yield (from C=CCCCOc1cc(C(=O)OC)ccc1[C@@H]1C[C@@H](OCC=C)CCN1C(=O)OC(C)(C)C, 13-membered ring, Grubbs I (20 mol%), 2.22 mM, 25.0 °C, 18.0 h): 68.8%

CC(C)(C)OC(=O)N1CCC2(O)CC=CCCCCOc3cc(Br)ccc3[C@@H]1C2
ring closure, isolated yield (from C=CCCCCOc1cc(Br)ccc1[C@@H]1CC(O)(CC=C)CCN1C(=O)OC(C)(C)C, 13-membered ring, Grubbs I, 2.5 mM, 25.0 °C, 48.0 h): 65.9%

C=CCCCOc1cc(Br)ccc1[C@@H]1C[C@@H](O)CCN1C(=O)OCc1ccccc1
ring closure, isolated yield (the molecule shown is the open-chain precursor, 13-membered ring, Grubbs I (5 mol%), 1.75 mM, 25.0 °C): 76.4%
